Key:
beagle dogs = test: Time to onset of sedation after IM administration of AVF in a canine model; type: in vivo
[1] = Diazepam plasma PK after single-dose IM administration of more concentrated AVF to dogs, Study 2 (Example 2); details: for AUClast/D (diazepam) / Cmax/D (diazepam): N=6, 0.0952 mol/L AVF, NCA
[2] = Diazepam plasma PK after single-dose SQ administration of AVF to dogs (Example 1); details: mean; single-dose SQ approx. 1.9 mg/kg avizafone; NCA
[3] = Diazepam plasma PK after single-dose IM administration of AVF to dogs, Study 1 (Example 1)
[4] = geometric mean, N=6, Study 1, IM, NCA
[5] = mean, N=6, Study 1, IM, NCA, Table 5
[6] = pooled without and with niacin, IM vs SQ

## Avizafone
Beagle dogs; Study 1, IM, less concentrated AVF formulations (mean 0.0300 mol/L)
  median time for onset of sedation: greater than 45 minutes
Beagle dogs; Study 2, IM, more concentrated formulation (0.0952 mol/L)
  median time for onset of sedation: approximately 10 minutes
[1]; 3-fold higher injection solution concentration, 3-fold smaller injection volume, IM
  shorter Tmax in Study 2 than in Study 1: 3 fold
[1]; IM, Study 2 vs Study 1, compartment modeling
  mean K01 higher in Study 2 compared to Study 1: 4.2 fold
[1]; Study 2, IM, compartment modeling
  mean K01 (input rate constant) for DZP: 0.9501 min⁻¹
[1]; geometric mean, Study 2, IM
  AUClast/D (diazepam): 22101 (min*ng/mL)/(mg/kg)
  Cmax/D (diazepam): 644 (ng/mL)/(mg/kg)
[1]; mean, Study 2, IM
  AUClast/D (diazepam): 22176 (min*ng/mL)/(mg/kg)
  Cmax/D (diazepam): 656 (ng/mL)/(mg/kg)
[1]; median, Study 2, IM
  AUClast/D (diazepam): 21903 (min*ng/mL)/(mg/kg)
  Cmax/D (diazepam): 605 (ng/mL)/(mg/kg)
[2]
  Cmax/D (diazepam): 264 (ng/mL)/(mg/kg)
  V/F (diazepam): 2.432 L/kg
[3]; Study 1, IM, compartment modeling
  mean K01 (input rate constant) for DZP: 0.2289 min⁻¹
[3]; [4]
  AUClast/D (diazepam): 22243 (min*ng/mL)/(mg/kg)
  Cmax/D (diazepam): 650 (ng/mL)/(mg/kg)
[3]; [5]
  AUClast/D (diazepam): 22637 (min*ng/mL)/(mg/kg)
  Cmax/D (diazepam): 702 (ng/mL)/(mg/kg)
[3]; mean, single-dose IM approx. 1.6 to 1.8 mg/kg avizafone, NCA
  V/F (diazepam): 1.435 L/kg
[3]; mean, single-dose IM approx. 1.6 to 1.8 mg/kg avizafone, NCA, Table 2
  Cmax/D (diazepam): 397 (ng/mL)/(mg/kg)
[3]; median, N=6, Study 1, IM, NCA
  AUClast/D (diazepam): 22225 (min*ng/mL)/(mg/kg)
  Cmax/D (diazepam): 574 (ng/mL)/(mg/kg)
[3]; [6]
  DZP AUClast/D higher following IM than following SQ administration: 1.43 fold
  DZP Cmax/D higher following IM than following SQ administration: 1.50 fold

Reference: patent US20220225159A1, “PARENTERAL DELIVERY OF AVIZAFONE” (Sollievo Pharmaceuticals, Inc, priority 2020, published 2022)
